# Measured values published in patent US10138292B2, “Cell culture medium” (BIOLAMINA AB, priority 2010, dated 2018).
# Key:
# [1] = tested on: PI3K/Akt and MEK1/Erk pathways; test: Western blot with antibodies to phospho-Akt / phospho-Erk; format: cell-based, human; conditions: data not shown
# Description: HS 181 cells were trypsinized into single cell suspension as described above. For inhibition experiments, the cells were kept in O3 medium with blocking antibodies or pathway inhibitors for 30 minutes and then 450K cells were plated on 35 mm dishes precoated with the appropriate matrix coating. For other experiments, same number of cells was plated directly after trypsinization. In all cases the cells were allowed to spread for 1 hour at 37° C., 5% CO2. After two washings in ice-cold PBS, the plates with cells were snap frozen in liquid nitrogen and stored at −80° C. To prepare samples for western blots and ELISA, the plates were slowly thawed and kept on ice with 100-150 μl of lysis buffer (50 mM Tris-HCl, pH7.5, 150 mM NaCl, 0.5% deoxycholate, 0.5% SDS, 1% Triton X-100, 1% Igepal, Complete™ (Roche) and Phospho-Stop™ (Roche)) on top. Then, the cells were scraped, pipetted and sheared through a 27G ¾″ needle. After that, the cell pellets were clarified by centrifugation at 16,100 rcf for 15 minutes at 4° C. For western blots, 4-12% gradient gels were used for SDS electrophoresis and the proteins were transferred to PVDF membranes. The membrane was hybridized with the antibody of interest according to the manufacturer's instructions. […] For the densitometry analysis the films were scanned at 2,400 dpi and analyzed by the Chemilmager5500 program (1D-Multi Line densitometry mode). […]
# human ES cells [2] = test: Cell adhesion assay, 1 hour (Example 1); format: cell-based; conditions: O3 medium without any additives, without Y-27632
# Description: Ninety-six-well tissue cell culture plates were coated overnight at 4° C. with sterile solutions of the ECM proteins mouse LN-111 (Invitrogen), human recombinant LN-511, and human recombinant LN-521, all at a concentration of 30 μg/ml (5 μg/cm^2). For control cells, BD Matrigel™ hESC qualified (BD Biosciences) was used according to the manufacturer's instructions.
# The assay was performed as described (Extracellular Matrix Protocols, 2000). Briefly, 96-well plates were coated by extracellular matrix proteins as described above and blocked by O3 medium containing bovine serum albumin. The ES cells were plated at a cell density of 600 cell/mm^2 upon extracellular matrix-coated plates and were left to adhere for either 1 hour or 1 day at the cell incubator. Non-adherent cells were washed away, and adherent cells were fixed for 20 min by 5% glutaraldehyde, stained by 0.1% Crystal Violet.
# human ES cells [3] = test: Long-term culture with single cell dissociation passaging (Example 1); format: cell-based
# Description: Human ES cells were cultured on r-laminin-521-coated laboratory dishes in chemically defined O3 medium (described in Rodin et al., Nature Biotechnol., vol. 28, pp. 611-615 (2010)) at 37° C. in 5% CO2. Cells were routinely passed once every 10-12 days by exposure to Trypsin-EDTA solution (GIBCO Invitrogen) for 5 minutes at 37° C. They were then gently pipetted to break into single-cell suspension and defined trypsin inhibitor (GIBCO Invitrogen) was added. The cell suspension was centrifuged […], the supernatant discarded, the cell pellet resuspended in prewarmed O3 medium, and cells were then passed through a 40 μm sieve. After that cells were plated on new r-laminin-521-coated dishes at a concentration 30 Kcells/cm^2 (1:25-1:30 split ratio). Cells were fed once a day with fresh medium prewarmed in an incubator for 1 hour, except for the first day after a passage, when only a few drops of fresh medium were added. Control cells of the same line were cultured on Matrigel (BD Biosciences) in O3 medium as described in Rodin et al., Nature Biotechnol., vol. 28, pp. 611-615 (2010). Control cells were passaged in pieces.
# hES cell lines = test: Karyotyping; format: cell-based, human; conditions: HS181 12 passages and H1 10 passages in O3 medium; H1 7 passages in TeSR2
# Description: Karyotyping of the cell lines was carried out using standard Q-banding techniques. Samples of cells were treated with colcemid KaryoMAX (0.1 μg/ml; Gibco Invitrogen Corporation) for up to 4 hours, followed by dissociation with Trypsin/EDTA solution (Gibco Invitrogen Corporation). The cells were pelleted via centrifugation and re-suspended in pre-warmed 0.0375 M KCl hypotonic solution and incubated for 10 minutes. Following centrifugation, the cells were resuspended in fixative (3:1 methanol:acetic acid). Metaphase spreads were prepared on glass microscope slides and G-banded by brief exposure to trypsin and stained with 4:1 Gurr's/Leishmann's stain (Sigma-Aldrich Co.). A minimum of 10 metaphase spreads were analyzed and additional 20 were counted.
# [4] = tested on: human embryonic stem cells; test: Survival of dissociated human embryonic stem cells one day after plating on precoated dishes; format: cell-based; conditions: single cell suspension, O3 medium, 30 Kcells/cm^2
# Text: In other aspects, the present disclosure provides a new material, isolated laminin-521, which permits human embryonic stem cell survival after dissociation into single cell suspension. The stem cells were dissociated into single cell suspension by Trypsin-EDTA treatment, pelleted by centrifugation, resuspended into O3 medium, filtered through a 40 μm sieve, and plated at a density of 30 Kcells/cm^2 on cell culture dishes precoated by either isolated laminin-521, laminin-511, or Matrigel. After one day in culture, the cells plated on Matrigel died, as is known in the art.
# hES cells = test: Clonal survival of individualized hES cells (Example 4); format: cell-based, human; conditions: mTeSR1 medium, 250 cells per cm^2, 5 days, alkaline phosphatase staining
# Description: hES cells were plated in mTeSR1 medium on different coatings at a density of 250 cells per cm^2 and monitored after 5 days in culture using an alkaline phosphatase staining kit.
# Next, combinations of laminin-521 and E-Cadherin were tested to determine whether the combinations could sustain clonal survival of the cells. Fixed amounts of laminin-521 were used for the cell culture dish coating in combination with titrated E-Cadherin.
# Additional tests were performed to test the effects of various modifications to the mTeSR1 medium. A mixture of E-Cadherin to laminin-521 in a ratio of about 1:10 w/w was used to coat the plates. […] Time-lapse photography of the cells confirmed that laminin-521/E-Cadherin coatings facilitated cell survival through proliferation of the single cells, not through the aggregation of different cells.
# human ES and iPS cells = test: Long-term self-renewal culture on LN-521 (Example 2); format: cell-based
substance,measurement,setting,value
"LN-521: protein formed by joining α5, β2 and γ1 laminin chains; human recombinant, produced in HEK293 cells",PI3K/Akt pathway activity (phospho-Akt western blot),[1],active
same,adhesion of human ES cells at 1 hour,human ES cells [2],roughly the same
same,increase in the number of cells versus time compared with Matrigel,human ES cells [3]; LN-521 single cell passaging vs Matrigel clumps,much faster rate
same,passages with robust proliferation at stable and high rate,"human ES cells [3]; single cell suspension passaging every 10-12 days, 1:25 to 1:30 ratios (3 months)",at least 9 passages
same,karyotype,hES cell lines,normal
same,survival after one day in culture,[4],survived
same,clonal survival of individualized hES cells,hES cells,Neither laminin-521 nor E-Cadherin alone permitted efficient clonal survival
same,passages cultured,"human ES and iPS cells; ChiPSW cells, mTeSR1",3 passages
same,passages cultured,"human ES and iPS cells; CutB1.2 iPS cells, mTeSR1",5 passages
same,passages of proliferation,"human ES and iPS cells; H1 cells, O3 medium (6 months)",≥ 15 passages
same,passages cultured,"human ES and iPS cells; H1 cells, TeSR2 (5 months)",12 passages
same,passages of proliferation,"human ES and iPS cells; HS181 cells, O3 medium (9 months)",at least 24 passages
same,passages of proliferation,"human ES and iPS cells; HS401 cells, O3 medium (2 months)",≥ 5 passages
same,passages cultured,"human ES and iPS cells; HS401 cells, TeSR2 (1.5 months)",4 passages
